How the values were obtained:
[1] = system: MOLP-8; test: Antiproliferative activity, CCK-8, MOLP-8; assay type: cell-based; settings: MOLP-8, Human multiple myeloma; read-out: Cytotoxicity (IC50 μM)
Method: (§1) The tumor cells used were purchased from commercial cell banks (HCT116 purchased from ATCC, SKM 1 purchased from JCRB). The growth inhibition of cells was detected using the CCK-8 method. The specific steps were as follows. Cells in the logarithmic growth phase were seeded into a 96 well culture plate at an appropriate density, with 90 μL/well. After overnight cultivation, different concentrations of drugs were added for treatment for 72 h, with each concentration in triplicate, and corresponding concentration of vehicle control and cell-free blank wells were also set. After the treatment, 10 μL of CCK-8 was added to each well and the plate was incubated in an incubator for 2-4 hours, and the optical density (OD value) at a wavelength of 450 nm was measured using a SpectraMax 190 microplate reader. […] The experiment was repeated twice, and the mean value and SD were calculated.
(§2) The testing method for antiproliferative activity was the same as that mentioned in Pharmacological Experiment Example 2, and the results are shown in Table 4 and FIGS. 2-3.

[2] = system: A375; test: Antiproliferative activity, CCK-8, A375; assay type: cell-based, human; settings: A375, Melanoma; read-out: Cytotoxicity (IC50 μM)
Method: as §1, §2

[3] = system: SNU-16; test: Antiproliferative activity, CCK-8, SNU-16; assay type: cell-based; settings: SNU-16, gastric cancer; read-out: Cytotoxicity (IC50 μM)
Method: as §1, §2

[4] = system: K-562; test: Antiproliferative activity, CCK-8, K-562; assay type: cell-based; settings: K-562, Chronic myeloid leukemia; read-out: Cytotoxicity (IC50 μM)
Method: as §1, §2

[5] = system: NOMO-1; test: Antiproliferative activity, CCK-8, NOMO-1; assay type: cell-based; settings: NOMO-1, Acute monocytic leukemia; read-out: Cytotoxicity (IC50 μM)
Method: as §1, §2

[6] = system: RS4; 11; test: Antiproliferative activity, CCK-8, RS4; 11; assay type: cell-based; settings: 11, Acute lymphoblastic leukemia, read-out: Cytotoxicity (IC50 μM)
Method: as §1, §2

[7] = system: CMK; test: Antiproliferative activity, CCK-8, CMK; assay type: cell-based; settings: Down syndrome acute megakaryocyte leukemia, read-out: Cytotoxicity (IC50 μM)
Method: as §1, §2

[8] = system: CCRF-CEM; test: Antiproliferative activity, CCK-8, CCRF-CEM; assay type: cell-based; settings: T-cell acute lymphoblastic leukemia, read-out: Cytotoxicity (IC50 μM)
Method: as §1, §2

[9] = system: SU-DHL-8; test: Antiproliferative activity, CCK-8, SU-DHL-8; assay type: cell-based; settings: SU-DHL-8, Diffuse large B-cell lymphoma; read-out: Cytotoxicity (IC50 μM)
Method: as §1, §2

[10] = system: MO-91; test: Antiproliferative activity, CCK-8, MO-91; assay type: cell-based; settings: MO-91, Acute myeloid leukemia; read-out: Cytotoxicity (IC50 μM)
Method: as §1, §2

[11] = system: WILL-2; test: Antiproliferative activity, CCK-8, WILL-2; assay type: cell-based; settings: WILL-2, Diffuse large B-cell lymphoma; read-out: Cytotoxicity (IC50 μM)
Method: as §1, §2

[12] = system: Z138; test: Antiproliferative activity, CCK-8, Z138; assay type: cell-based; settings: Z138, Human mantle cell lymphoma; read-out: Cytotoxicity (IC50 μM)
Method: as §1, §2

[13] = system: CAKI-1; test: Antiproliferative activity, CCK-8, CAKI-1; assay type: cell-based; settings: CAKI-1, Renal cell carcinoma; read-out: Cytotoxicity (IC50 μM)
Method: as §1, §2

[14] = biological target: HDAC10 (Homo sapiens (Human), UniProt Q969S8); test: HDAC subtype inhibitory activity (HTRF), HDAC10; assay type: biochemical
Sequence of HDAC10 (Q969S8 whole entry): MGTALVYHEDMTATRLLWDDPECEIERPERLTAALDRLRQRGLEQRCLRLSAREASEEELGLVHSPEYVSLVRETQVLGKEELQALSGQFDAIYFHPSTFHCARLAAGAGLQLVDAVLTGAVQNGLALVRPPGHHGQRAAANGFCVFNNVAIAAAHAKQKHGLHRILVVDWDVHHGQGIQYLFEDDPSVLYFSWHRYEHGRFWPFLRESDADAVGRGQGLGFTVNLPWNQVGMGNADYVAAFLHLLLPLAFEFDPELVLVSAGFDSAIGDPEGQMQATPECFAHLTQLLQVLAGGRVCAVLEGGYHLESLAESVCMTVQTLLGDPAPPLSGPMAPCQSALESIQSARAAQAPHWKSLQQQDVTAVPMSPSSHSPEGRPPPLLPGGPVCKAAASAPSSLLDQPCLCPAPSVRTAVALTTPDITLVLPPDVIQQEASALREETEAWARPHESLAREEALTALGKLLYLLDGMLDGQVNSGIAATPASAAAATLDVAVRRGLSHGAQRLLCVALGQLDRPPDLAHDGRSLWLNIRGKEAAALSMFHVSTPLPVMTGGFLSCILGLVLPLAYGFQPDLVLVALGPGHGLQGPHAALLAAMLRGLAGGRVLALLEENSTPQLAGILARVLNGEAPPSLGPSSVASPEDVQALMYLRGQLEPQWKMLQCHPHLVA
Method: (§3) Human recombinant HDAC family proteins with His and GST tags were expressed using insect baculovirus expression system, and a biologically active HDAC family recombinant protein was obtained through Ni affinity column protein purification. HTRF detection method was used with H3(1-21) K9Ac biotin as the substrate. […] Briefly, 20 μl of the activity testing system included the HDAC substrate (0.2 μM. 4 μl), the Human Recombinant Protein HDAC (2-5 ng)/μl.

[15] = system: OPM-2; test: Antiproliferative activity, CCK-8, OPM-2; assay type: cell-based; settings: OPM-2, Human multiple myeloid leukemia; read-out: Cytotoxicity (IC50 μM)
Method: as §1, §2

[16] = system: VMM5A; test: Antiproliferative activity, CCK-8, VMM5A; assay type: cell-based; settings: Melanoma, read-out: Cytotoxicity (IC50 μM)
Method: as §1, §2

[17] = system: KG-1; test: Antiproliferative activity, CCK-8, KG-1; assay type: cell-based; settings: KG-1, Acute myeloid leukemia; read-out: Cytotoxicity (IC50 μM)
Method: as §1, §2

[18] = system: SNU-5; test: Antiproliferative activity, CCK-8, SNU-5; assay type: cell-based; settings: SNU-5, Gastric cancer; read-out: Cytotoxicity (IC50 μM)
Method: as §1, §2

[19] = system: H9; test: Antiproliferative activity, CCK-8, H9; assay type: cell-based; settings: H9, Human T lymphocyte line; read-out: Cytotoxicity (IC50 μM)
Method: as §1, §2

[20] = system: SKM-1 cells; test: Antiproliferative activity, CCK-8, SKM-1; assay type: cell-based, human; settings: 72 h
Method: as §1
With reference to HCT-116 cell proliferation inhibition test method, the inhibitory activity of the compounds on the proliferation of human myelodysplastic syndrome cell SKM-1 was tested.

[21] = system: REC-1; test: Antiproliferative activity, CCK-8, REC-1; assay type: cell-based; settings: REC-1, Human mantle cell lymphoma; read-out: Cytotoxicity (IC50 μM)
Method: as §1, §2

[22] = system: NCI-H929; test: Antiproliferative activity, CCK-8, NCI-H929; assay type: cell-based; settings: NCI-H929, Human multiple myeloma; read-out: Cytotoxicity (IC50 μM)
Method: as §1, §2

[23] = system: HH; test: Antiproliferative activity, CCK-8, HH; assay type: cell-based; settings: Primary cutaneous T-cell non Hodgkin lymphoma, read-out: Cytotoxicity (IC50 μM)
Method: as §1, §2

[24] = system: MDA-MB-453; test: Antiproliferative activity, CCK-8, MDA-MB-453; assay type: cell-based; settings: MDA-MB-453, Breast cancer; read-out: Cytotoxicity (IC50 μM)
Method: as §1, §2

[25] = system: WILL-1; test: Antiproliferative activity, CCK-8, WILL-1; assay type: cell-based; settings: WILL-1, Diffuse large B-cell lymphoma; read-out: Cytotoxicity (IC50 μM)
Method: as §1, §2

[26] = biological target: HDAC2 (Homo sapiens (Human), UniProt Q92769); test: HDAC subtype inhibitory activity (HTRF), HDAC2; assay type: biochemical
Sequence of HDAC2 (Q92769 whole entry): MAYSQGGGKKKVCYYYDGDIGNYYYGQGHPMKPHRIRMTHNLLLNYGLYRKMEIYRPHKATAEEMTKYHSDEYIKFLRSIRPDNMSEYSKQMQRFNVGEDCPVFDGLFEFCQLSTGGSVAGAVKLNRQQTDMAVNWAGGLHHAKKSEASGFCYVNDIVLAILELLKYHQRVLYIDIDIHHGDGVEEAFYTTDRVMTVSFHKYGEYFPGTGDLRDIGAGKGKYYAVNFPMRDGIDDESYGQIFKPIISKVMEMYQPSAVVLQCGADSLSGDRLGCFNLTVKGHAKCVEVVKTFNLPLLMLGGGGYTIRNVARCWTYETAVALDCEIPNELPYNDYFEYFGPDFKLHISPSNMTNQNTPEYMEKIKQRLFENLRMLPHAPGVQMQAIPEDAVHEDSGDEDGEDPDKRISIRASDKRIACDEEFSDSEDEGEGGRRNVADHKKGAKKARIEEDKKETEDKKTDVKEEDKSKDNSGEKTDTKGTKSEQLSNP
Method: as §3

[27] = system: HCT-116 cells; test: Antiproliferative activity, CCK-8, HCT-116; assay type: cell-based, human; settings: 72 h
Method: as §1

[28] = system: U-2932; test: Antiproliferative activity, CCK-8, U-2932; assay type: cell-based; settings: U-2932, Diffuse large B-cell lymphoma; read-out: Cytotoxicity (IC50 μM)
Method: as §1, §2

[29] = system: EoL-1; test: Antiproliferative activity, CCK-8, EoL-1; assay type: cell-based; settings: EoL-1, Chronic eosinophilic leukemia; read-out: Cytotoxicity (IC50 μM)
Method: as §1, §2

IC50 [14]: > 100000 nM
IC50 [20]: 140 ± 8 nM
IC50 [26]: 90 ± 6 nM
IC50 [27]: 220 ± 4 nM
Structure (SMILES): C[C@@H](c1ccc(C(=O)Nc2ccc(F)cc2N)cc1)n1nc(-c2ccc(CN(C)C)cc2)ccc1=O [Compound I-1]
IC50 [1]: 0.632 ± 0.066 µM
IC50 [2]: 0.556 ± 0.018 µM
IC50 [3]: 0.675 ± 0.064 µM
IC50 [4]: 0.473 ± 0.171 µM
IC50 [5]: 0.523 ± 0.12 µM
IC50 [6]: 0.412 ± 0.129 µM
IC50 [7]: 0.131 ± 0.011 µM
IC50 [8]: 0.382 ± 0.067 µM
IC50 [9]: 0.443 ± 0.185 µM
IC50 [10]: 0.427 ± 0.163 µM
IC50 [11]: 0.347 ± 0.217 µM
IC50 [12]: 0.363 ± 0.046 µM
IC50 [13]: 0.594 ± 0.011 µM
IC50 [15]: 0.436 ± 0.222 µM
IC50 [16]: 0.856 ± 0.018 µM
IC50 [17]: 0.95 ± 0.066 µM
IC50 [18]: 0.314 ± 0.011 µM
IC50 [19]: 0.649 ± 0.044 µM
IC50 [21]: 0.381 µM
IC50 [22]: 0.642 ± 0.025 µM
IC50 [23]: 0.219 ± 0.093 µM
IC50 [24]: 0.498 ± 0.036 µM
IC50 [25]: 0.116 ± 0.006 µM
IC50 [28]: 0.214 ± 0.001 µM
IC50 [29]: 0.158 µM
